# Measured values taken from patent publication US20090305321A1, “Assays for Allosteric Modulators of G-Protein Coupled Receptors (GPCRs)” (ASTRAZENECA AB, priority 2005, published 2009).
# Key:
# wild type GST = target: T1, wild type GST (Schistosoma japonicum, UniProt P08515); assay: [3H]Compound A radioligand binding to wild type GST control; settings: 20 nM [3H]Compound A; FIG. 21, average of three experiments
# T1 construct: made in house; host or cells: E. coli
# Procedure: Protein solutions (50 μL dilutions starting at 1.28 mg/ml) of either GST-CXCR2 fusion or wild type GST were then added, giving a total incubation volume of 200 μL per well. The plates were incubated for 2 hours at room temperature.
# A GF-B filter plate was set up containing 50 μl of 1 mg/ml gelatine in PBS in each well, which was then filtered through the plate and discarded. 100 μl filter mix (160 mg/ml charcoal (dextran coated) in PBS containing 1 mg/ml gelatine) was then filtered through the plate and then 150 μl assay mix was then filtered through the prepared filter plate (The charcoal catches the excess un-bound compound). After filtering, 100 μl filtrate was transferred to a lumaplate and dried down in a 50° C. oven overnight and then counted on the TopCount instrument (Packard BioScience)
# CXCR1 = target: T2, CXCR1 (Homo sapiens, UniProt P25024); assay: Chemokine receptor panel (assays similar to Example 1 and 2), CXCR1; type: binding
# T2 sequence (P25024 1-350): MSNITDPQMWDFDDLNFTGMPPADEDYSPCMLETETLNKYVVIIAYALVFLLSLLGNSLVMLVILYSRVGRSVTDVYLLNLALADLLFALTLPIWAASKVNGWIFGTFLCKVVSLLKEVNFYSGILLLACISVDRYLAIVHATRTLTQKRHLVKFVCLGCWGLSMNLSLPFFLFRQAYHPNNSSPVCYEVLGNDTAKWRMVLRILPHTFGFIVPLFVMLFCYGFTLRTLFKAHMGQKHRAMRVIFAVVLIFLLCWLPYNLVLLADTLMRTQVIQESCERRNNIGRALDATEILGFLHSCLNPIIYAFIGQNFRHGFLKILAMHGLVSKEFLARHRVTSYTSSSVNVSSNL
# Text: (§1) All points were reproduced in triplicate on each plate.
# CXCR2 [1] = target: T3, CXCR2 (Homo sapiens, UniProt P25025); assay: HEK FLIPR intracellular calcium assay, wild type CXCR2; type: cell-based; settings: Compound A 30 nM (10 nM and 30 nM in Example 5), Compound B 100 nM
# T3 construct: expressed in transfected cells
# T3 sequence (P25025 1-360): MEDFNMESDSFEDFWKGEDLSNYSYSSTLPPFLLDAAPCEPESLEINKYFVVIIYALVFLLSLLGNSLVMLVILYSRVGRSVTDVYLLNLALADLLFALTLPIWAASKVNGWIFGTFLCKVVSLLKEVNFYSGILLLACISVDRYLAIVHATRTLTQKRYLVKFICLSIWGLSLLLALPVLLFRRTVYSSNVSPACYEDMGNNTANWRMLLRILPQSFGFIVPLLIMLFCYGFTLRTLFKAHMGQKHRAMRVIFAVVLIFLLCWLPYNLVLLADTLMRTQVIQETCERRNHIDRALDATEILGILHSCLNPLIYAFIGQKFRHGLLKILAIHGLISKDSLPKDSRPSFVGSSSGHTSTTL
# Procedure: HEK cells, transfected with the human recombinant CXCR2 receptor, were grown to approximately 80% confluence in 225 cm^2 flasks in DMEM-Glutamax medium containing, non-essential amino acids, 10% (v/v) FCS in a humidified incubator at 37° C., 5% CO2. Cells were harvested from the flask using 10× trypsin at 37° C. for 1 to 2 minutes.
# as §1
# [2] = target: T4, GST-CXCR2 fusion protein (human CXCR2 residues G318 to L360) (Homo sapiens, UniProt P25025); assay: [3H]Compound A radioligand binding to GST-CXCR2 C terminal tail; settings: 20 nM [3H]Compound A, FIG. 21, average of three experiments
# T4 construct: made in house; host or cells: E. coli
# Procedure: An expression construct which encodes for S. Japonicum glutathione-S-transferase (GST) fused to the last 43 amino acids of human CXCR2 (residues G318 to L360) was generated by standard molecular biological techniques.
# The protein was expressed in E. coli and the resulting fusion protein was purified from the cell extract via chromatography using a 5 ml GSTrap column (Amersham) which binds GST containing proteins, and eluted using 10 mM reduced glutathione in the elution buffer. At the same time GST without a CXCR2 C-terminal tail was also expressed and purified as a control. Both proteins had the excess 10 mM glutathione removed using a XK26/10 desalting column (Amersham).
# Protein solutions (50 μL dilutions starting at 1.28 mg/ml) of either GST-CXCR2 fusion or wild type GST were then added, giving a total incubation volume of 200 μL per well.
# A GF-B filter plate was set up containing 50 μl of 1 mg/ml gelatine in PBS in each well, which was then filtered through the plate and discarded. […] After filtering, 100 μl filtrate was transferred to a lumaplate and dried down in a 50° C. oven overnight and then counted on the TopCount instrument (Packard BioScience)
# CCR1 = target: T5, CCR1 (Homo sapiens, UniProt P32246); assay: Chemokine receptor panel (assays similar to Example 1 and 2), CCR1; type: binding; settings: CCR1, 10 uM
# T5 sequence (P32246 1-355): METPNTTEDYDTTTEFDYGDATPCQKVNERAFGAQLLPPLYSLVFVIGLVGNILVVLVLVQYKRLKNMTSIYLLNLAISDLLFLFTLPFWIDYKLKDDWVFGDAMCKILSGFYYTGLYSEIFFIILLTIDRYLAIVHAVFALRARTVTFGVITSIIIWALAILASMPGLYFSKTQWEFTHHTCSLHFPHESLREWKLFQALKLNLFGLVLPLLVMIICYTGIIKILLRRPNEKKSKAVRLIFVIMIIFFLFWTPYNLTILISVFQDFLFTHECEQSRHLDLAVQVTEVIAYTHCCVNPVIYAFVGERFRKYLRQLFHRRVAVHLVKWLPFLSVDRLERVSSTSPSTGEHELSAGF
# CCR2b = target: T6, CCR2b (Homo sapiens, UniProt P41597); assay: Chemokine receptor panel (assays similar to Example 1 and 2), CCR2b; type: binding
# T6 sequence (P41597 1-360 isoform P41597-2): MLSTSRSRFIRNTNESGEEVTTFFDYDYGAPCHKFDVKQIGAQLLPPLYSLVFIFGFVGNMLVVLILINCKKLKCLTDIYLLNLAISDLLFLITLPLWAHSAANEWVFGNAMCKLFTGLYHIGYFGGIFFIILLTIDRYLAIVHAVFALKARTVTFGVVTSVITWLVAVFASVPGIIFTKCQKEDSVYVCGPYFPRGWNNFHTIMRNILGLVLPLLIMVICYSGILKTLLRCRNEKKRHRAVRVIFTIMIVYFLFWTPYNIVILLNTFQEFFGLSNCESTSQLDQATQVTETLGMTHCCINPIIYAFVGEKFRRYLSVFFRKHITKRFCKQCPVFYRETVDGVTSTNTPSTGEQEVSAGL
# CX3CR1 = target: T7, CX3CR1 (Homo sapiens, UniProt P49238); assay: biochemical
# T7 sequence (P49238 1-355): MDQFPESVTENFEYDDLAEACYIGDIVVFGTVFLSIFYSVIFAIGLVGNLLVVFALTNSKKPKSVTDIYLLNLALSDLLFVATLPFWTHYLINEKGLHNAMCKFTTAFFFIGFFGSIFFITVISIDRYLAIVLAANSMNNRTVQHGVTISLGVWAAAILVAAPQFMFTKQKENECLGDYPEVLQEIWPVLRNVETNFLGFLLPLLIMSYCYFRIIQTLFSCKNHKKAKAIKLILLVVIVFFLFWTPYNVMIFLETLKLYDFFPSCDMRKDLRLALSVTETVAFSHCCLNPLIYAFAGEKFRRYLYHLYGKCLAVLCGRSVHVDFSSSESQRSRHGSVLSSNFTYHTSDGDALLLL
# CCR5 = CCR5 (Homo sapiens, UniProt P51681); assay: Chemokine receptor panel (assays similar to Example 1 and 2), CCR5; type: binding; settings: CCR5, 10 uM
# Procedure: (§2) Membranes (80 μL of 1×10^6 cell equivalents/mL) were then added, giving a total incubation volume of 100 μL per well. The plates were incubated for 2 hours at room temperature.
# (§3) HEK 293 transfectants were seeded at 5×10^4 cells per well in 96 well poly-D lysine coated black with clear bottom plates (Becton Dickinson) and cultured for 16 h at 37° C. with an atmosphere of 5% CO2/95% air to form confluent monolayers. The following day cells were loaded with 5 μM Flura 3 AM diluted in tyrodes solution (137 mM NaCl, 10 mM HEPES, 0.441 mM KH2PO4, 2.67 mM KCl, 1.8 mM CaCL2, 1 mM MgCl2) with 6.25 mM probenecid at pH7.4, 100 μl per well and incubated at 37° C. with an atmosphere of 5% CO2/95% air for 1 h. After which the loading media was removed and the cells washed twice with PBS/HEPES solution (100 μl per well) then overlayed with 50 μl assay buffer (tyrodes buffer without probenecid). 50 μl inhibitor compound or 50 μl 0.2% (v/v) DMSO carrier diluted in assay buffer was then added per well and incubated for 30 minutes at room temperature before the addition of 50 μl 3 mM Carbachol per well. Calcium flux responses were measured using a Fluorometric Imaging Plate Reader (Molecular Devices) for 3 minutes before the addition of either IL-8 (50 μl, 1×10^−7-3×10^−11 M final concentration) or GROalpha. […] Fluorescence readings were taken every 2 seconds for a total run time of 6 minutes.
# CCR4 = target: T8, CCR4 (Homo sapiens, UniProt P51679); assay: Chemokine receptor panel (assays similar to Example 1 and 2), CCR4; type: binding
# T8 sequence (P51679 1-360): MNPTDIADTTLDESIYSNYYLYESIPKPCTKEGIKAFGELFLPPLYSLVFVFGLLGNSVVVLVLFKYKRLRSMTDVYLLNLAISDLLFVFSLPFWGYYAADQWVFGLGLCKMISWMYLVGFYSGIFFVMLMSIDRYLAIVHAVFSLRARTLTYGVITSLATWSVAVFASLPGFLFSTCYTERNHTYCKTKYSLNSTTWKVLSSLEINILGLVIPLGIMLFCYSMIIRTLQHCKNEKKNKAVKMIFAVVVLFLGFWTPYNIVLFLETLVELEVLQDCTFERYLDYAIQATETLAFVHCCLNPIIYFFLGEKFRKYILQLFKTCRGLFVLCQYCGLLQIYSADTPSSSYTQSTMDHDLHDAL
# Procedure: as §2, §3
# CXCR2 [3] = target: T3, CXCR2; assay: [3H]-Compound C binding assay on CXCR2 membranes; settings: 20 nM [3H]Compound C, FIG. 3
# Procedure: Following incubation, the plate containing the assay mixture was transferred to GF-B plates and filter-washed with cold HEPES-buffered salt solution using a Tomtec harvester. The filtration plate was allowed to air dry then 20 μl of MicroScint-0 added to each well. 96-well plate scintillation counting was performed using a TopCount instrument (Packard BioScience) for 1 minute per sample well.
# [4] = target: T9, human Chemokine receptor CXCR2 (Homo sapiens, UniProt P25025); assay: CXCR2 membrane [125I]IL-8 radioligand binding assay; settings: FIG. 2
# T9 construct: expressed in transfected cells
# T9 sequence (P25025 1-360): T3 sequence (P25025 1-360)
# Procedure: HEK 293 cells were transfected with CXCR2 receptor using the lipofection reagent Fugene 6 (Roche). […] Stable HEK-CXCR2 transfectants were grown to approximately 80% confluence in 10-layer cell factories in DMEM medium containing 10% (v/v) foetal calf serum and glutamine (2 mM) in a humidified incubator at 37° C., 5% CO2. Cells were harvested from the flask using Accutase at 37° C. for 3 to 5 minutes.
# Cells were resuspended on ice in 60 mL hypotonic buffer at a density of 2×10^7 cells/mL. Membranes were prepared on ice by homogenisaton using a polytron tissue homogenizer set at 22000 rpm. The membrane preparation was purified by sucrose gradient centrifugation. In each of 4 centrifuge tubes 15 mL of cell membranes was layered onto 10 mL 41% (w/v) sucrose solution and the tubes centrifuged at 140000 g for 1 hour at 4° C. […]
# Following incubation, the plate containing the assay mixture was filter-washed with 200 μL cold HEPES-buffered salt solution using a Millipore vacuum manifold. The filtration plate was allowed to air dry then either the individual filters were punched out into polypropylene test tubes and the radioactivity measured by direct gamma counting using a Cobra II Gamma counter (Packard BioScience) for 1 minute per sample or alternatively, the whole filtration plate was placed in a carrier plate and 50 μL of MicroScint-O added to each well. […]
# T1 sequence (P08515 whole entry): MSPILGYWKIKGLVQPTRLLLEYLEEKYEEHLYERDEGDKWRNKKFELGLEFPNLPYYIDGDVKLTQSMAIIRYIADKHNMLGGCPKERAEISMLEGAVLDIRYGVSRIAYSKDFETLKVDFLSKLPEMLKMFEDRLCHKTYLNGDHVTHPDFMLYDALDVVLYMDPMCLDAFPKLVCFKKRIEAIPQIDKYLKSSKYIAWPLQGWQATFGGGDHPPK
# CCR5, sequence (P51681 whole entry): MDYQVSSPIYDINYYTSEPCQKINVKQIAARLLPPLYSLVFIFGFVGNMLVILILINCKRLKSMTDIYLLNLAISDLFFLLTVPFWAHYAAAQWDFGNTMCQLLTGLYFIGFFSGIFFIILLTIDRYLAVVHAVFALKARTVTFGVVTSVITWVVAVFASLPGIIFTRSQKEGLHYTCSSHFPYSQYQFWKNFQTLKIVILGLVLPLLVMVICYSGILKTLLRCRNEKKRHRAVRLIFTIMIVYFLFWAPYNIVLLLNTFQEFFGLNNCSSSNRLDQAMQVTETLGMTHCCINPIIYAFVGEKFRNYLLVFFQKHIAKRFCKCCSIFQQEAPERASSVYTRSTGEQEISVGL
# T4 sequence (P25025 with tags, fused parts or gaps): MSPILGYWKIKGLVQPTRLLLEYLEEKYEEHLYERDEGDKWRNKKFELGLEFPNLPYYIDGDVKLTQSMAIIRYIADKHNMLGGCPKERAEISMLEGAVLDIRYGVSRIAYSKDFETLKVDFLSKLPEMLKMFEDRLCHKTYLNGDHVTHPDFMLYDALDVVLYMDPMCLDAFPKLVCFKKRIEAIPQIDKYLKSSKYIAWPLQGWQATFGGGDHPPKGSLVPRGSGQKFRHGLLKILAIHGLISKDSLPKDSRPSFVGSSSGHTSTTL
molecule,measurement,setting,value
C[C@H](CO)Nc1nc(SCc2cccc(Cl)c2F)nc2[nH]c(=O)sc12 [Compound A],compound binding to wild type GST control protein,wild type GST,minimal compound binding
same,IC50,CXCR1,251 nM
same,activity (inhibition of IL-8-induced calcium release),CXCR2 [1],active against CXCR2
same,radiolabelled binding to GST-CXCR2 fusion protein on addition of excess cold compound,[2],decrease in radiolabelled binding
same,inhibition at 10 µM,CCR1,62%
same,IC50,CCR2b,158 nM
same,IC50,CX3CR1,251 nM
same,inhibition at 10 µM,CCR5,72%
same,IC50,CCR4,7940 nM
NS(=O)(=O)c1c(Cl)ccc(NC(=O)Nc2cccc(Cl)c2Cl)c1O [Compound B],activity (inhibition of IL-8-induced calcium release),CXCR2 [1],active against CXCR2
C[C@H](CO)Nc1nc(SCc2ccccc2)nc2nc(N)sc12 [Compound C],binding to CXCR2 / displacement of radio-labelled Compound C,CXCR2 [3],can bind to CXCR2
same,inhibition of [125I]-IL-8 binding,[4],able to inhibit the binding
"IL-8: C-X-C chemokine, endogenous CXCR2/CXCR1 agonist ligand; non-radioactive IL-8 used as competitor",inhibition of [125I]-IL-8 binding,[4],able to inhibit the binding
